Laboratory results reported in patent publication US20090005442A1, “CARBAMATE COMPOUNDS FOR USE IN PREVENTING OR TREATING NEURODEGENERATIVE DISORDERS” (priority 2001, published 2009).

System: PC12 cells
Assay: PC12 cell serum withdrawal model (MTS cell survival assay)
Format: cell-based
Conditions: control cells = 100%; for 7 Day Survival Rate (%): 10 μM applied at serum withdrawal and every 48 hr, MTS assay at 7 days; for 2 Day Survival Rate (%): 10 μM applied once at serum withdrawal, MTS assay at 2 days
Excerpt: Serum withdrawal is a cytotoxic environmental challenge that results in cell death in cultured cell lines as well as in primary cells of various tissue origins, including nerve cells. In particular, pheochromocytoma (PC) 12 cells have been widely employed as an in vitro neuronal cell model for a wide variety of neurodegenerative and cell death related disorders (Muriel, et al, Mitochondrial free calcium levels (Rhod-2 fluorescence) and ultrastructural alterations in neuronally differentiated PC12 cells during ceramide-dependent cell death, J. Comp. Neurol., 2000, 426(2), 297-315; Dermitzaki, et al, Opioids transiently prevent activation of apoptotic mechanisms following short periods of serum withdrawal, J. Neurochem., 2000, 74(3), 960-969; Carlile, et al, Reduced apoptosis after nerve growth factor and serum withdrawal: conversion of tetrameric glyceraldehyde-3-phosphate dehydrogenase to a dimer, Mol. Pharmacol., 2000, 57(1), 2-12).
PC12 cells were cultured in sterile media (RPMI 1640) supplemented with 10% heat-inactivated horse serum and 5% fetal bovine serum (FBS). The culture medium also contained 1× Penicillin-Streptomycin-Neomycin antibiotic (50 μg, 50 μg, 100 μg, respectively). Medium was exchanged every other day and the cells were passed in log phase near confluence.
The control cells were cultured in regular media without any treatment. An enantiomer of Formula (Ib) or […] (10 μM) was mixed well in the medium and then applied to the cells. For the 2 day assay, an enantiomer of Formula (Ib) or […] (10 μM) was only applied to the cells once at the time of serum withdrawal. For the 7 day assay, an enantiomer of Formula (Ib) or Formula (IIb) (10 μM) was applied to the cells at the time of serum withdrawal and every 48 hr thereafter when cells were changed with fresh new serum-free medium. In the serum withdrawal group, the cells were cultured in serum-free medium with no additional enantiomer of Formula (Ib) or Formula (IIb). Cell survival was determined by the 3-(4,5-dimethylthiazol-2-yl)-5-(3-carboxy-methoxyphenyl)-2-(4-sulfophenyl)-2H-tetrazolium inner salt (MTS) assay at 2 or 7 days after serum withdrawal.
At the end of the experiment, cells were washed with fresh medium and incubated with MTS solution in a humidified 37° C. with 5% CO2 incubator for 1.5 hr. After the incubation period, the cells were immediately analyzed using a Softmax program (Molecular Devices). […] The assay is based on the cellular conversion of the tetrazolium salt, MTS, into a formazan that is soluble in tissue culture medium and measured directly at 490 nm in 96-well assay plates. The absorbance is directly proportional to the number of living cells in culture. The arbitrary absorbance reading in control cells is expressed as 100% survival rate.

Structure (SMILES)	7 Day Survival Rate (%)	2 Day Survival Rate (%)
NC(=O)OC[C@H](OC(N)=O)c1ccccc1Cl [Formula (IIb)]	85.2 ± 0.6^2%	66.4 ± 5.4^1%
NC(=O)OC[C@@H](O)c1ccccc1Cl [Formula (Ib)]	79.9 ± 4.0^2%	69.4 ± 1.7^1%
